In patent US5238935A, “N-acyl-tetrahydroisoquinolines as inhibitors of acyl-coenzyme A: cholesterol acyl transferase” (Schering Corporation, priority 1992, dated 1993):

Columns and labels:
[1] = biological target: T1, ACAT (Rattus norvegicus, UniProt Q7TQM4); test: ACAT assay (in vitro); format: biochemical; settings: rat liver microsomes; for inhibition at 25 µM / inhibition at 10 µM: read-out: ACAT Inhibition Screen % Inhibition; for IC50: pH 7.4, 37° C., 10 μM acyl CoA, read-out: ACAT Inhibition Screen IC50
T1 construct: Rat liver microsomes are used as the source of ACAT; from tissue; host or cells: rat liver microsomes
T1 sequence (Q7TQM4 1-524): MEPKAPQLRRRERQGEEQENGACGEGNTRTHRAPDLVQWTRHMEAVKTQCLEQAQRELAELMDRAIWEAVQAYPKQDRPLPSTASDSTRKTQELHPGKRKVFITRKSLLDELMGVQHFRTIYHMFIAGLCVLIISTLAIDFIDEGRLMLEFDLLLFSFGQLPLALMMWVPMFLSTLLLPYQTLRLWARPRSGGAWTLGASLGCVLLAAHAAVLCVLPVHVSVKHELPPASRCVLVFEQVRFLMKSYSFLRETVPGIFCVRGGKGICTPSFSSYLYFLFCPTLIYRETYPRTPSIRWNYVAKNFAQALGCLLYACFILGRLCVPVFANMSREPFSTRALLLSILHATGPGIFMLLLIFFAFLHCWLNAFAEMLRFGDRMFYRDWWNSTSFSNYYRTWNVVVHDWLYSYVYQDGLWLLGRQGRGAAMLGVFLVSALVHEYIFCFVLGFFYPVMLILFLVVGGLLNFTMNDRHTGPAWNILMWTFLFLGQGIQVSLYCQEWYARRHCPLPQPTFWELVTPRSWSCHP
Method: The in vitro activity of compounds of formula I or Ia can be determined by the following procedure.
This assay measures the activity of ACAT by measuring the ACAT-mediated transfer of tritiated oleic acid from acyl-CoA to cholesterol to give labelled cholesterol oleate. Rat liver microsomes are used as the source of ACAT. Assays are performed in round bottom microtiterplates using a total incubation volume of 50μL. Each incubation well receives 10 μL assay buffer (0.5M KHPO4, 10 μM dithiothreitol, pH 7.4), 7.5 μL of 40 mg/mL BSA (Bovine Serum Albumin) and 12.5 μg of microsomal protein. The test compound (in sufficient amount to bring the final concentration to from 0.1 to 25 μM), reference compound, or vehicle control is added and the final volume brought to 47 μL. The microtiterplate is then floated on the surface of a 37° C. water bath for fifteen minutes. Incubations are started by the addition of 3 μL ^3 H-acyl CoA (1 μCi/well, final concentration of 10 μM acyl CoA). The plate is then returned to the water bath for 15 minutes. The incubations are then terminated by application of 15 μL from each incubation to individual lanes on a thin layer plate (Silica Gel GF 20×20 cm). Standards are applied to several lanes so that the cholesterol ester band can be identified. After drying, the plates are eluted with 90:10:1 petroleum ether:diethyl ether:acetic acid. The standards are visualized via iodine vapor, and the regions corresponding to cholesterol ester are scraped into 7 mL scintillation vials. 4 mL of scintillant are added to each vial, and the radioactivity quantified. Background count is determined by the boiled controls. Full activity is determined by activity in the presence of vehicle. The percent inhibition is calculated by subtracting the background from both control and test samples, and the test value is calculated as a percentage of the control. For IC50 determinations, the inhibition is plotted against drug doses on a log scale and the concentration at which 50% inhibiting is obtained is determined.

[2] = biological target: T1, ACAT; test: ACAT assay (in vitro); format: biochemical; settings: rat liver microsomes, read-out: ACAT Inhibition Screen % Inhibition

| inhibition at 25 µM [1] | IC50 [1] | Compound | also measured |
| --- | --- | --- | --- |
| 4% | – | CCCCCCCC/C=C\CCCCCCCC(=O)N1CCc2cc(C)c(OC)cc2C1CCc1ccc(Cl)cc1 (centres unmarked) | – |
| 91% | – | CCCCCCCC/C=C\CCCCCCCC(=O)N1CCc2cc(OC)c(OC)cc2C1Cc1ccc(OC)c(OC)c1 (centres unmarked) | – |
| 63% | – | CCCCCCCC/C=C\CCCCCCCC(=O)N1CCc2cc(OC)c(OC)cc2C1Cc1ccccc1 (centres unmarked) | – |
| – | 8 µM | CCCCCCCC/C=C/CCCCCCCC(=O)N1CCc2cc(OC)c(OC)cc2C1c1ccccc1 (centres unmarked) | inhibition at 10 µM [1]: 87% |
| – | – | CCCCCCCC/C=C\CCCCCCCC(=O)N1CCc2cc(OC)c(OC)cc2C1c1ccccc1 (centres unmarked) [N-(6,7-dimethoxy-1-phenyl-1,2,3,4-tetrahydroisoquinoline)-9-Z-octadecenamid] | inhibition at 10 µM [1]: 66% |
| – | – | CCCCCCCC/C=C\CCCCCCCC(=O)N1CCc2ccccc2C1c1cc(Cl)ccc1NC (centres unmarked) [N-[1-(2-methylamino-5-chlorophenyl)-1,2,3,4-tetrahydroisoquinoline]-9-Z-octadecenamide] | inhibition at 10 µM [1]: 10% |
| 67% | – | CCCCCCCC/C=C\CCCCCCCC(=O)N1Cc2cc(OC)c(OC)cc2CC1c1ccc(OC)c(OC)c1 (centres unmarked) [N-[6,7-dimethoxy-3-(3,4-dimethoxyphenyl)-1,2,3,4-tetrahydroisoquinoline]-9-Z-octadecenamide] | – |
| 81% | – | CCCCCCCC/C=C\CCCCCCCC(=O)N1CCc2ccccc2C1Cc1ccccc1 (centres unmarked) [R3=C6H5CH2, R4=H, R5=H, R2a=H, R2b=H] | – |
| 73% | – | CCCCCCCC/C=C\CCCCCCCC(=O)N1CCc2cc(O)c(O)cc2C1Cc1ccccc1 (centres unmarked) [R3=C6H5CH2, R4=H, R5=H, R2a=OH, R2b=OH, N-(1-benzyl-6,7-dihydroxy-1,2,3,4-tetrahydroisoquinoline)-9-Z-octadecenamide] | – |
| 86% | – | CCCCCCCC/C=C\CCCCCCCC(=O)N1Cc2cc(OC)c(OC)cc2CC1c1ccccc1 (centres unmarked) [R3=H, R4=C6H5, R5=H, R2a=CH3O, R2b=CH3O, N-(6,7-dimethoxy-3-phenyl1,2,3,4-tetrahydroisoquinoline)-9-Z-octadecenamide] | – |
| 83% | 2.4 µM | CCCCCCCC/C=C\CCCCCCCC(=O)N1Cc2cc(OC)c(OC)cc2C(c2ccccc2)C1 (centres unmarked) [R3=H, R4=H, R5=C6H5, R2a=CH3O, R2b=CH3O, N-(6,7-dimethoxy-4-phenyl-1,2,3,4-tetrahydroisoquinoline)-9-Z-octadecenamid] | – |
| 100% | 0.74 µM | CCCCCCCC/C=C\CCCCCCCC(=O)N1CCc2cc(OC)c(OC)cc2C1 [R3=H, R4=H, R5=H, R2a=CH3O, R2b=CH3O] | – |
| – | 12 µM | CCCCCCCC/C=C\CCCCCCCC(=O)N1CCc2ccccc2C1 [R3=H, R4=H, R5=H, R2a=H, R2b=H] | inhibition at 100 µM [2]: 83% |
